What was measured:
[1] = molecular target: 5-hydroxytryptamine receptor 4 (Cavia porcellus) (UniProt O70528); assay: Displacement of [3H]GR113808 from 5HT4 receptor in guinea pig striatal membranes at 1 uM; format: cell membranes; conditions: Striatum, Membrane
[2] = molecular target: 5-hydroxytryptamine receptor 4 (Cavia porcellus, UniProt O70528); assay: Displacement of [3H]GR113808 from 5HT4 receptor in guinea pig striatal membranes; format: cell membranes, Striatum, Membrane
Sequence of 5-hydroxytryptamine receptor 4 (O70528 whole entry): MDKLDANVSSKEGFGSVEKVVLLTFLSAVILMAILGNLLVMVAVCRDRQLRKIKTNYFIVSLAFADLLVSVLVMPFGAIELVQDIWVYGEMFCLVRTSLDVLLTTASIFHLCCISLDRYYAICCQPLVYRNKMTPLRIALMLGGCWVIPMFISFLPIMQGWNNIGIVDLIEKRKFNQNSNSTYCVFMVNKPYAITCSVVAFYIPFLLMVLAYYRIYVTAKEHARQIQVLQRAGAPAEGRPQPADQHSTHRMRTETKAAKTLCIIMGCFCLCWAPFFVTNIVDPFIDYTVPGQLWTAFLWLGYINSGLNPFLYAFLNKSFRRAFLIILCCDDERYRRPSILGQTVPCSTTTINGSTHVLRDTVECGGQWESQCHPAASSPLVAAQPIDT

Sequence of 5-hydroxytryptamine receptor 4 (Cavia porcellus) (O70528 whole entry): as above

inhibition [1] [%]	Ki [2] [nM]	Structure (SMILES)
87	129	Cc1csc2nc(OCC3CCN(C/C=C/I)CC3)c3cccn3c12
85	891	C#CCN1CCC(COc2nc3scc(C)c3n3cccc23)CC1

Reference: ChEMBL document CHEMBL1287647, “Synthesis and characterization of a iodine-125-labeled pyrrolo[1,2-a]thieno[3,2-e]pyrazine and evaluation as a potential 5-HT4R SPECT tracer” (Eur J Med Chem, 2010)
